Measured values as given in patent publication US20040185460A1, “Novel mixed lineage kinase (7) (mlk7) polypeptide polynucleotides encoding the same and methods of use thereof” (priority 2001, published 2004).

Test system: baculoviral human GST-MLK7KD and GST-MLK7KD/LZ
Settings: data not shown; shows requirement for metal ions (Mg+2)

O=C(O)CN(CCN(CC(=O)O)CC(=O)O)CC(=O)O [EDTA]
activities of GST-MLK7KD and GST-MLK7KD/LZ: inhibited
